The text below walks through data of ChEMBL document CHEMBL4406923, “New Potent DOT1L Inhibitors for in Vivo Evaluation in Mouse” (ACS Med Chem Lett, 2019).

For data set [1], the target named is T1, Histone-arginine methyltransferase CARM1 (Homo sapiens) (UniProt Q86X55).
T1 sequence (whole entry): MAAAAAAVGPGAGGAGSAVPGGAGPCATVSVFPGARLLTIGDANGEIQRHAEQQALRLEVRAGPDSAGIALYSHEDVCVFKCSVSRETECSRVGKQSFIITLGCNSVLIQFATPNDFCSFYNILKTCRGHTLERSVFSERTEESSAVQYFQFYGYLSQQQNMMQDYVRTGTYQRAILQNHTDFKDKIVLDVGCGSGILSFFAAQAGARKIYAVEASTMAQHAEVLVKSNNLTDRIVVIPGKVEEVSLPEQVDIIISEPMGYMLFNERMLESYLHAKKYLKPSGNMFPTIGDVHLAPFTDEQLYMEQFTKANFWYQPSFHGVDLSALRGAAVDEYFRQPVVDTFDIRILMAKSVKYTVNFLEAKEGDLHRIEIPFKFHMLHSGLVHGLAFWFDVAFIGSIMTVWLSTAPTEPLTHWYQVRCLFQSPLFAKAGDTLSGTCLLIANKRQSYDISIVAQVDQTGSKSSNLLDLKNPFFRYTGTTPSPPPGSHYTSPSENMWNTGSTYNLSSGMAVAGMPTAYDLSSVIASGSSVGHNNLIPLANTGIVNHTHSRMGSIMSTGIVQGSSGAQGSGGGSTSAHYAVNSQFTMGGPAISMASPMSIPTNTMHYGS
The data set is described as follows: Inhibition of CARM1 (unknown origin) at <5 uM using histone H3 peptide (1 to 21) as substrate in presence of co-factor SAM by LC-MS analysis.

The nature of data set [2]: Drug concentration in C57BL/6 mouse blood at 300 mg/kg, po measured after 24 hrs. The note with it: read-out: Drug uptake. In kind it is ADME, organism-based.
For a further data set, the species on record is Homo sapiens. Briefly: Inhibition of Ezh1 (Ezh1/EED/SUZ12/AEBP2/RbAP48) (unknown origin) at <5 uM using histone H3 peptide (21 to 44) as substrate in presence of co-factor SAM by LC-MS analysis.
In data set [3] the target is T2, Histone-lysine N-methyltransferase NSD3 (Homo sapiens) (UniProt Q9BZ95).
T2 sequence (whole entry): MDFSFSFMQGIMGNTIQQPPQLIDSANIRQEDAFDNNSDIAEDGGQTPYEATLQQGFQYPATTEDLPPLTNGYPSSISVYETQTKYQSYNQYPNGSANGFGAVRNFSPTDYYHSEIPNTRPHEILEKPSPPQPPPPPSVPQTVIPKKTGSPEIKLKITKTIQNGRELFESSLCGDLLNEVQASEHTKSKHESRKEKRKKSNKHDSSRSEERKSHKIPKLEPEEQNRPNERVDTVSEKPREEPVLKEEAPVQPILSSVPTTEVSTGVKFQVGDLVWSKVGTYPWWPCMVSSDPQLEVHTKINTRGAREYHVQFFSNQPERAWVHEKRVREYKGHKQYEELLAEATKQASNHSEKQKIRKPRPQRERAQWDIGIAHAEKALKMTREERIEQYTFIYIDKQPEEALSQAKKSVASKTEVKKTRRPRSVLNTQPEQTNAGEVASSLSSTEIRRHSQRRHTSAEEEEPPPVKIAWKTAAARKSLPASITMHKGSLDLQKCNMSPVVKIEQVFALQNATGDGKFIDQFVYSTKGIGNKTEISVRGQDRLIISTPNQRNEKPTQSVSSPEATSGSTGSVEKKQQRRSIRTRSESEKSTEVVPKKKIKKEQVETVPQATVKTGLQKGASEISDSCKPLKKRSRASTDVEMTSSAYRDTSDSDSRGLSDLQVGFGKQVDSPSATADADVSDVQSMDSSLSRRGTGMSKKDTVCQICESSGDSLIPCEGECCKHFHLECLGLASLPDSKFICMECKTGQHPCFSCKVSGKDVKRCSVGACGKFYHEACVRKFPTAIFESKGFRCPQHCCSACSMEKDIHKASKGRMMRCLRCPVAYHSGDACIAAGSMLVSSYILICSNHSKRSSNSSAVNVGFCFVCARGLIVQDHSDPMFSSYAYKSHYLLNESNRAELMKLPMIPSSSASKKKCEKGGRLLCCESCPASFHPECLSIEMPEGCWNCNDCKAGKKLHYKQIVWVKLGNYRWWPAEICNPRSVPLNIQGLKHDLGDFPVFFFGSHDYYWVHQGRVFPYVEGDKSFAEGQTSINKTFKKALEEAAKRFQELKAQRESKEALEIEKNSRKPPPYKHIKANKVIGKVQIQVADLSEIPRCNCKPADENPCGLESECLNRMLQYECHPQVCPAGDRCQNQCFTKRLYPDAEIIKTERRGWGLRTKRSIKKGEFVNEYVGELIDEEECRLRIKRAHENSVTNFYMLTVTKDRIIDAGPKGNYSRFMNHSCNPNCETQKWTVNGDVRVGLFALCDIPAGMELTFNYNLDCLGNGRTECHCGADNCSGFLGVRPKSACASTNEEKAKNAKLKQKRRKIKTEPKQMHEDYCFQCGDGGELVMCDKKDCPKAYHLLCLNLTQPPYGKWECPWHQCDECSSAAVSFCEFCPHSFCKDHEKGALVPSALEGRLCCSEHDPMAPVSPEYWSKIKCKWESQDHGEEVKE
The data set is described as follows: Inhibition of NSD3 (unknown origin) at <5 uM using histone H3 peptide (1 to 45) as substrate in presence of co-factor SAM by LC-MS analysis.

Data set [4] addresses T3, Histone-lysine N-methyltransferase SETD7 (Homo sapiens) (UniProt Q8WTS6).
T3 sequence (whole entry): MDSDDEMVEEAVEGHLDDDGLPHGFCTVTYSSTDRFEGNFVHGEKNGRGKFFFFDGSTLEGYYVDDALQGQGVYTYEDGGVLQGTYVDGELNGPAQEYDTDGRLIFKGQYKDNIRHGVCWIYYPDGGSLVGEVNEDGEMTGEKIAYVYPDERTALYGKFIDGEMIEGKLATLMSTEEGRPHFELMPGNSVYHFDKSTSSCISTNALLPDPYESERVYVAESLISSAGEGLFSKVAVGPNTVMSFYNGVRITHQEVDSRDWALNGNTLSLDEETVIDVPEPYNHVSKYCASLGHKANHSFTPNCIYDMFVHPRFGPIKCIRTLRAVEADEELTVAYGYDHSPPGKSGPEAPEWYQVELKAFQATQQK
The data set is described as follows: Inhibition of Set7/9 (unknown origin) at <5 uM using H3 (1 to 21) as substrate in presence of co-factor SAM by LC-MS analysis.

Data set [5] addresses N-lysine methyltransferase SMYD2 (Homo sapiens) (UniProt Q9NRG4). Briefly: Inhibition of SmyD2 (unknown origin) at <5 uM using p53 (363 to 393 residues) as substrate in presence of co-factor SAM by LC-MS analysis.
Data set [6] deals with Histone-lysine N-methyltransferase SUV39H2 (Homo sapiens) (UniProt Q9H5I1). The data set is described as follows: Inhibition of Suv39H2 (unknown origin) at <5 uM using histone H3 peptide (1 to 21) as substrate in presence of co-factor SAM by LC-MS analysis.
Histone-lysine N-methyltransferase SUV39H2 (Homo sapiens), sequence (Q9H5I1 whole entry): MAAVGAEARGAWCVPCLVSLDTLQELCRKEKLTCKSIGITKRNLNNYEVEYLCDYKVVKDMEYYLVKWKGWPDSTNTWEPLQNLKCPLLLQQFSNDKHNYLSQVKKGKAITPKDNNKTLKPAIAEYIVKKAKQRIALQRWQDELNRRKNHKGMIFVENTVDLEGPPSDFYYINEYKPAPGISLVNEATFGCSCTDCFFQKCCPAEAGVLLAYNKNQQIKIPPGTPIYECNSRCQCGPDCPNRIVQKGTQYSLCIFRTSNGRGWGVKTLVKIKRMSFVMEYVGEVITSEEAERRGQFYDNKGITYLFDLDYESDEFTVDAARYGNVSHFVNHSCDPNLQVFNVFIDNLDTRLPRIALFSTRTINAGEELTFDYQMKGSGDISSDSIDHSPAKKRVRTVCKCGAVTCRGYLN
Data set [7] is described as follows: Drug concentration in C57BL/6 mouse blood at 300 mg/kg, po administered daily for 7 days. In kind it is ADME, organism-based. The note with it: in vivo, 168 h.

Each structure is given as a SMILES string. Activity calls are given as the source filed them. The calls are words filed in the database; no cut-off is given here.

N-lysine methyltransferase SMYD2 (Homo sapiens), sequence (Q9NRG4 whole entry, the tested form may be a part): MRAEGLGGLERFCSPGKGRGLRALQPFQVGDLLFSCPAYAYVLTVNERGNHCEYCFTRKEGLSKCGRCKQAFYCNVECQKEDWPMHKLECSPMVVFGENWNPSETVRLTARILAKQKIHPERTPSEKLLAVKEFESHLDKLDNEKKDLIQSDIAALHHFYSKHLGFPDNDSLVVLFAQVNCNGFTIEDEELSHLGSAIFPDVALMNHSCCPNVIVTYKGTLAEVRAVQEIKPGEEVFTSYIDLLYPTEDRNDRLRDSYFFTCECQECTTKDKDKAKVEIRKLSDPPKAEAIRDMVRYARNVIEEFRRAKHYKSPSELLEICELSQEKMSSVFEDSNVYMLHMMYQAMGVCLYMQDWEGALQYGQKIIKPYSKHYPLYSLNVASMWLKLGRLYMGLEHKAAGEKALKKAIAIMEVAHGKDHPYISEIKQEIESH

Consider `COc1nc(Nc2cc(S(C)(=O)=O)ccc2N[C@@H](c2cccc3c2OC(F)(F)O3)c2ncccc2Cl)nc(N2CCNCC2)n1`, for which the inhibition entry (in data set [1]; in the data set listed under Homo sapiens; in data set [3]; in data set [4]; in data set [5]; in data set [6]) was “inactive” throughout. Also, the concentration at 24 h in data set [2] is 4 to 8 µM. The Drug uptake result in data set [7] was “Active”.
